Assay results published in article PMC9078972 (RSC Advances, 2018).
In brackets after ≈: the same amount, converted by molar mass.

What was measured:
in vitro [1] = conditions: mouse, microsomes, pH 7.5
[2] = Cytotoxicity against VERO cells; type: cell-based; conditions: African green monkey, VERO cells (kidney epithelial cells)
in vitro [3] = conditions: human, microsomes, pH 7.5
in vitro [4] = conditions: dog
physchem = conditions: 37 °C, water, thermodynamic from solid
in vitro [5] = conditions: rat, microsomes, pH 7.5
[6] = test system: Mycobacterium tuberculosis H37Ra; assay: microbe, parasite or virus in culture; type: cell-based
[7] = ref previous study; cited from earlier work

C[C@H]1COC2(CCN(c3nc(=O)c4cc(C(F)(F)F)cc([N+](=O)[O-])c4s3)CC2)O1 [BTZ043]
half-life (in vitro [1]): 16.7 min
CC50 [2]: > 10 µM
half-life (in vitro [3]): 46.1 min
Papp B→A (in vitro [4]; MDCK-MDR1, pH 7.4): 71.7 nm/s
efflux ratio (in vitro [4]; MDCK-MDR1, pH 7.4): 0.79
Papp A→B (in vitro [4]; MDCK-MDR1, pH 7.4, Mean Papp A to B, A to B): 90.2 nm/s
solubility (physchem): < 1 µg/mL
half-life (in vitro [5]): 22 min
MIC [6]: 4 nM (≈ 1.73 ng/mL)
bioavailability F [7]: 29.5%
